Experimental data: patent publication US20230031406A1, “COMPOUNDS AND COMPOSITIONS FOR TREATING CONDITIONS ASSOCIATED WITH NLRP ACTIVITY” (Novartis AG, priority 2018, published 2023)
Read-outs that look alike come from different tables or passages of the source. Each block holds one molecule with its values, some of them ahead of it.

Test system: PMA-differentiated THP-1 cells
Assay: IL-1β production in PMA-differentiated THP-1 cells stimulated with gramicidin (hTHP-1 assay containing 2% fetal bovine serum; Procedures 1 and 2)
Assay type: cell-based, human
Details: 2% fetal bovine serum
Procedure, shortened: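 PMA 20 ng/ml 16-18 h → trypsinise → 50,000 cells/well, RPMI/2% FBS; cpd 1 h (11-pt, 100–0.0017 μM; DMSO 0.37%); gramicidin 5 μM, 2 h; spin; supernatant IL-1β via HTRF.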

[1] = Table B1, class symbols, read-out: Average IC50 of compounds in hTHP-1 assay: hTHP-1 IC50
[2] = Table B2, class symbols, read-out: hTHP-1 IC50
[3] = Homo sapiens, THP-1, Table B3, hTHP-1 assay, class symbols, read-out: IC50
[4] = Homo sapiens, THP-1, Table B2, class symbols, read-out: hTHP-1 IC50
[5] = Table B4, class symbols, read-out: hTHP-1 IC50
[6] = Homo sapiens, THP-1, Table B1, class symbols, read-out: Average IC50 of compounds in hTHP-1 assay: hTHP-1 IC50
[7] = Homo sapiens, THP-1, Table B2, numeric bounds, read-out: hTHP-1 IC50

Structure (SMILES): CC1CCc2c1nc1c(c2NC(=O)N=S(N)(=O)c2ccn(C(F)F)n2)CCC1 (single isomer, unassigned) [Compound 184a, (R,R) or (R,S)-1-(difluoro-methyl)-N′-((3-methyl-1,2,3,5,6,7-hexahydro-dicyclopenta[b,e]pyridin-8-yl)carbamoyl)-1H-pyrazole-3-sulfonimidamide]
IC50 [1]: 0.04 to 0.2 µM

Structure (SMILES): Cc1c(CC(F)(F)F)nc2c(c1NC(=O)N=S(N)(=O)c1nn(C(F)F)cc1F)CCC2 (single isomer, unassigned) [Example 724, (S) or (R)-1-(difluoromethyl)-4-fluoro-N′-((3-methyl-2-(2,2,2-trifluoroethyl)-6,7-dihydro-5H-cyclopenta[b]pyridin-4-yl)carbamoyl)-1H-pyrazole-3-sulfonimidamide]
IC50 (Homo sapiens, THP-1, Table B3, hTHP-1 assay, numeric values, read-out: IC50): > 30 µM

Structure (SMILES): NS(=O)(=NC(=O)Nc1c2c(nc3c1CCC31CC1)CCC2)c1ccn(CCO)n1 (stereo not drawn) [Example 622, 1-(2-Hydroxyethyl)-N′-((1′,5′,6′,7′-tetrahydro-2′H-spiro[cyclopropane-1,3′-dicyclopenta[b,e]pyridin]-8′-yl)carbamoyl)-1H-pyrazole-3-sulfonimidamide]
IC50 [3]: 1 to 5 µM

Structure (SMILES): Cc1c(C(F)(F)F)nc2c(c1NC(=O)N=S(N)(=O)c1ccn(C)n1)CCC2 (single isomer, unassigned) [Example 693, (R) or (S)-1-Methyl-N′-((3-methyl-2-(trifluoromethyl)-6,7-dihydro-5H-cyclopenta[b]pyridin-4-yl)carbamoyl)-1H-pyrazole-3-sulfonimidamide]
IC50 [3]: 1 to 5 µM

Structure (SMILES): CCn1cc(F)c(S(N)(=O)=NC(=O)Nc2c(-c3ccccc3)cnc3c2CCC3)n1 (single isomer, unassigned) [Example 793, (R) or (S)-1-ethyl-4-fluoro-N′-((3-phenyl-6,7-dihydro-5H-cyclopenta[b]pyridin-4-yl)carbamoyl)-1H-pyrazole-3-sulfonimidamide]
IC50 [5]: 0.2 to 1 µM

Structure (SMILES): CCn1ccc([S@@](N)(=O)=NC(=O)Nc2c3c(nc4c2CCC42CC2)CCC3)n1 [Compound 604a]
IC50 [4]: 5 to 30 µM

Structure (SMILES): CNS(=O)(=NC(=O)Nc1c2c(nc3c1CCC3)CCC2)c1ccc(CN(C)C)cc1 (stereo not drawn) [Compound 120, 4-((Dimethylamino)methyl)-N′-((1,2,3,5,6,7-hexahydrodicyclopenta[b,e]pyridin-8-yl)carbamoyl)-N-methylbenzenesulfonimidamide]
IC50 [6]: 0.2 to 1 µM

Structure (SMILES): Cc1c(C(F)(F)F)nc2c(c1NC(=O)N=S(N)(=O)c1cnn(C(F)F)c1)CCC2 (single isomer, unassigned) [Compound 617a, (R) or (S)-1-(Difluoromethyl)-N′-((3-methyl-2-(trifluoromethyl)-6,7-dihydro-5H-cyclopenta[b]pyridin-4-yl)carbamoyl)-1H-pyrazole-4-sulfonimidamide]
IC50 [4]: 5 to 30 µM

Structure (SMILES): CC(C)n1ccc(S(N)(=O)=NC(=O)Nc2c3c(nc4c2CCC42CC2)CCC3)n1 (single isomer, unassigned) [Compound 172a, (S) or (R)-1-Isopropyl-N′-((1′,5′,6′,7′-tetrahydro-2′H-spiro[cyclopropane-1,3′-dicyclopenta[b,e]pyridin]-8′-yl)carbamoyl)-1H-pyrazole-3-sulfonimidamide]
IC50 [1]: 5 to 30 µM

Structure (SMILES): NS(=O)(=NC(=O)Nc1c2c(nc(C(F)(F)F)c1-c1ccccc1)CCC2)c1nn(C(F)F)cc1F (single isomer, unassigned) [Example 765, (R) or (S)-1-(difluoromethyl)-4-fluoro-N′-((3-phenyl-2-(trifluoromethyl)-6,7-dihydro-5H-cyclopenta [b]pyridin-4-yl)carbamoyl)-1H-pyrazole-3-sulfonimidamide]
IC50 [5]: 0.008 to 0.04 µM

Structure (SMILES): Cc1c(C(F)(F)F)nc2c(c1NC(=O)N=S(N)(=O)c1nn(C(F)F)cc1F)CCC2 (single isomer, unassigned) [Example 563]
IC50 (Table B3, hTHP-1 assay, class symbols, read-out: IC50): 5 to 30 µM

Structure (SMILES): Cc1cc(C2CC2)nc(NC(=O)N=S(N)(=O)c2ncc(C(C)(C)O)s2)n1 (stereo not drawn) [Compound 185, N′-((4-cyclopropyl-6-methylpyrimidin-2-yl)carbamoyl)-5-(2-hydroxypropan-2-yl)thiazole-2-sulfonimidamide]
IC50 (Homo sapiens, THP-1, Table B1, numeric bounds, read-out: Average IC50 of compounds in hTHP-1 assay: hTHP-1 IC50): > 30 µM | IC50 [7]: > 30 µM

More lines, now with the values ahead:

IC50 [1]: 5 to 30 µM
Structure (SMILES): Cc1c(C2CC2)nc2c(c1NC(=O)N=S(N)(=O)c1cnc(C(C)(C)O)s1)CCC2 (single isomer, unassigned) [Compound 124a, (S) or (R)-N′-((2-cyclopropyl-3-methyl-6,7-dihydro-5H-cyclopenta[b]pyridin-4-yl)carbamoyl)-2-(2-hydroxypropan-2-yl)thiazole-5-sulfonimidamide]

IC50 [2]: 1 to 5 µM
Structure (SMILES): Cc1c(C2CC2)nc2c(c1NC(=O)N=S(N)(=O)c1cc(C(C)(C)O)cs1)CCC2C (stereo not drawn) [Compound 656, N′-((2-cyclopropyl-3,7-dimethyl-6,7-dihydro-5H-cyclopenta[b]pyridin-4-yl)carbamoyl)-4-(2-hydroxypropan-2-yl)thiophene-2-sulfonimidamide]

IC50 [3]: 0.04 to 0.2 µM
Structure (SMILES): CC1(C)CCc2c1nc1c(c2NC(=O)N=[S@@](N)(=O)c2cc([C@](C)(O)CO)cs2)CCC1 [Example 651, (R)-4-((S)-1,2-dihydroxypropan-2-yl)-N′-((3,3-dimethyl-1,2,3,5,6,7-hexahydrodicyclopenta[b,e]pyridin-8-yl)carbamoyl) thiophene-2-sulfonimidamide]

IC50 (Table B1, numeric bounds, read-out: Average IC50 of compounds in hTHP-1 assay: hTHP-1 IC50): > 30 µM
Structure (SMILES): Cc1c(-c2ccccc2)nc2c(c1NC(=O)N=S(N)(=O)c1cnc(C(C)(C)O)s1)CCC2 (single isomer, unassigned) [Compound 143b, (R) or (S)-2-(2-hydroxy-propan-2-yl)-N′-((3-methyl-2-phenyl-6,7-dihydro-5H-cyclopenta[b]pyridin-4-yl)carbamoyl)thiazole-5-sulfonimidamide]

IC50 [2]: 0.04 to 0.2 µM
Structure (SMILES): CC(C)(O)c1csc(S(N)(=O)=NC(=O)Nc2c3c(nc(C4CC4)c2C2CC2)CCC3)c1 (single isomer, unassigned) [Compound 670b, (R) or (S)-N′-((2,3-dicyclopropyl-6,7-dihydro-5H-cyclopenta[b]pyridin-4-yl)carbamoyl)-4-(2-hydroxypropan-2-yl)thiophene-2-sulfonimidamide]

IC50 [4]: 0.2 to 1 µM
Structure (SMILES): CC(C)c1c(C2CC2)nc2c(c1NC(=O)N=S(N)(=O)c1cc(C(C)(C)O)cs1)CCC2 (stereo not drawn) [Compound 667, N′-((2-cyclopropyl-3-isopropyl-6,7-dihydro-5H-cyclopenta[b]pyridin-4-yl)carbamoyl)-4-(2-hydroxypropan-2-yl)thiophene-2-sulfonimidamide]

IC50 [5]: 5 to 30 µM
Structure (SMILES): Cc1c(C(F)(F)F)nc2c(c1NC(=O)N=S(N)(=O)c1nn(C(C)C)cc1F)CCC2 (single isomer, unassigned) [Example 790, (S) or (R)-4-fluoro-1-isopropyl-N′-((3-methyl-2-(trifluoromethyl)-6,7-dihydro-5H-cyclo-penta [b]pyridin-4-yl)carbamoyl)-1H-pyrazole-3-sulfonimidamide]

IC50 [2]: 0.04 to 0.2 µM
Structure (SMILES): CCc1c(C2CC2)nc2c(c1NC(=O)N=S(N)(=O)c1cc(C(C)(C)O)cs1)CCC2 (single isomer, unassigned) [Compound 181b, (R) or (S)-N′((2-cyclopropyl-3-ethyl-6,7-dihydro-5H-cyclopenta[b]pyridin-4-yl)carbamoyl)-4-(2-hydroxypropan-2-yl)thiophene-2-sulfonimidamide]

IC50 [6]: 5 to 30 µM
Structure (SMILES): CCc1c(C)nc2c(c1NC(=O)N=S(N)(=O)c1cnc(C(C)(C)O)s1)CCC2 (single isomer, unassigned) [Compound 117b, (R) or (S)-N′-((3-ethyl-2-methyl-6,7-dihydro-5H-cyclopenta[b]pyridin-4-yl)carbamoyl)-2-(2-hydroxypropan-2-yl)thiazole-5-sulfonimidamide]

IC50 [6]: 5 to 30 µM
Structure (SMILES): Cc1nc2c(c(NC(=O)N=S(N)(=O)c3cnc(C(C)(C)O)s3)c1C)CCC2 (stereo not drawn) [Compound 138, N′-((2,3-dimethyl-6,7-dihydro-5H-cyclopenta[b]pyridin-4-yl)carbamoyl)-2-(2-hydroxypropan-2-yl)thiazole-5-sulfonimidamide]

IC50 [7]: > 30 µM
Structure (SMILES): Cc1cn(C(C)C)nc1S(N)(=O)=NC(=O)Nc1c2c(nc3c1CCC3)CCC2 (single isomer, unassigned) [Compound 687a, (S) or (R)-N′-((1,2,3,5,6,7-hexahydrodicyclopenta [b,e]pyridin-8-yl)carbamoyl)-1-isopropyl-4-methyl-1H-pyrazole-3-sulfonimidamide]

IC50 [1]: 5 to 30 µM
Structure (SMILES): CC(C)(O)c1ncc(S(N)(=O)=NC(=O)Nc2c3c(nc4c2CCC4)CCCC3)s1 (single isomer, unassigned) [Compound 161a, (S) or (R)-N′-((2,3,5,6,7,8-hexahydro-1H-cyclopenta[b]quinolin-9-yl)carbamoyl)-2-(2-hydroxypropan-2-yl)thiazole-5-sulfonimidamide]

IC50 [4]: 0.04 to 0.2 µM
Structure (SMILES): CC(C)(O)c1cc(F)c([S@](N)(=O)=NC(=O)Nc2c3c(nc(C4CC4)c2C2CC2)CCC3)s1 [Compound 727b]

IC50 [4]: 5 to 30 µM
Structure (SMILES): Cc1c(CO)nc2c(c1NC(=O)N=S(N)(=O)c1cnc(C(C)(C)O)s1)CCC2 (stereo not drawn) [Compound 619, N-((2-(hydroxymethyl)-3-methyl-6,7-dihydro-5H-cyclopenta[b]pyridin-4-yl)carbamoyl)-2-(2-hydroxypropan-2-yl)thiazole-5-sulfonimidamide]
